The results in this text go back to patent EP2576536B1, “HAEMATOPOIETIC-PROSTAGLANDIN D2 SYNTHASE INHIBITORS” (priority 2010, dated 2011).

One series addresses T1, H-PGDS (Homo sapiens, UniProt O60760).
T1 construct: made in house; host or cells: Escherichia coli BL21 DE3
As to the kind of experiment: H-PGDS catalyzed conjugation of GSH and CDNB, enzyme inhibition assay. It is filed as biochemical. As to conditions: for IC50: IC50 ± Standard Error of the Mean, triplicate experiments; for inhibition at 50 µM / I[50]: percent inhibition at 50 µM, Mean ± Standard Error of triplicate experiments; for inhibition at 50 µM: read-out: I[50]. The method, then: H-PGDS was expressed and purified as described previously (Jowsey, 2001). Briefly, H-PGDS was expressed in Escherichia coli strain BL21 DE3 transformed with the pET17b HPGDS expression construct, grown overnight at 37 °C in 250 ml of Luria-Bertani medium supplemented with 100 µg/ml ampicillin. After 24 h, without induction, bacteria were harvested by centrifugation at 5000 g for 20 min at 4 °C; cell pellets were kept at -70 °C until required. Cells were resuspended in 25 ml of ice-cold phosphate buffered saline (PBS), pH 7.4, containing 1 mM DTT, 0.5 % Triton X-100 and EDTA-free protease inhibitor tablets (F.Hoffmann-La Roche, Dee Why, NSW, Australia), and incubated with rotation for 30 mins at 4 °C. Cells were then lysed by sonication at 90-100 W over 3 x 1 min intervals, while incubated on ice; the lysate clarified by centrifugation at 18000 g for 10 min at 4 °C.
The supernatant was then applied to a GSTPrep FF 16/10 column pre-equilibrated with PBS, pH 7.4, and 1 mM DTT, at 0.4 ml/minute using an AKTA explorer 100 (GE Healthcare, Rydalmere, NSW, Australia), then washed with 5 column volumes of the same buffer at 1 ml/min. Bound H-PGDS was eluted in 5 column volumes of 15 mM reduced glutathione in 50 mM Tris, pH 9.0, at 0.5 ml/min, and dialysed against 100 volumes of 5 mM TrisCl, pH 8.0. The protein was concentrated to 20 mg/ml, as determined by the method of Bradford (Bradford, 1976) using an Amicon Ultra-4 centrifugal filter device (Millipore, North Ryde, NSW, Australia) following manufacturers recommendations. Glycerol was added to a final concentration of 10 % (v/v) prior to storage at -20 °C.
The H-PGDS catalyzed conjugation of GSH and 1-chloro-2,4-dinitrobenzene (CDNB) was used as the biochemical assay for enzyme inhibition. Reactions were performed in 96 well plate format, and product formation was followed at A340 nm over a 10 min internal at 25 °C using a POWERWAVE XS microplate scanning spectrophotometer (Bio-Tek Instruments, Winooski, VT, USA). Reactions were performed in 0.1 M Tris HCl, pH 8.0 containing 2 mM MgCl2, 1 mM CDNB, 2 mM GSH, 2.5 ng/µl purified H-PGDS and 10 % (v/v) ethanol in a 200 µl reaction volume. IC50 values were calculated from rates of conjugation activity determined at eight concentration points bracketing the IC50, where compound solubility allowed, and were corrected for background activity at the same solvent concentrations. All compounds were made up in 100 % DMSO and diluted with 0.1 M Tris HCl, pH 8.0 with 2 mM MgCl2. I50 and IC50 values were determined at a final DMSO composition of no greater than 4 % v/v for all compounds. Non-linear regression analysis and IC50 calculations were performed using GraphPad Prism version 4.0c.
IC50 values were calculated from triplicate experiments, and are presented as IC50 ± Standard Error of the Mean.

In series [1] the test system is mouse primary bone marrow-derived macrophages (BMM). As to the kind of experiment: LPS-inducible PGE2, 6-keto PGF1α and TXB2 production from BMM (EIA), specificity. The format is cell-based. As to conditions: 24 h, 0-100 µM. The method, then: The human megakaryocytic cell line MEG-01S was obtained from the American Type Culture Collection. MEG-01S were maintained in the same media as for BMM, supplemented with 1 mM Sodium Pyruvate (Invitrogen).
BMM were seeded overnight at 2 x 10^5 cells/ml in 24 well plates before treatment with compound at either 10 µM or 0.1 - 100 µM for 24 h in the presence or absence of lipopolysaccharide (LPS) from Salmonella Minnesota (Sigma-Aldrich) at a final concentration of 10 ng/ml. MEG-01S were seeded at 2 x 10^5 cells/ml and stimulated with PMA (Phorbol 12-myristate 13-acetate) (Sigma-Aldrich) at a final concentration of 0.1 µM for 16 h.

The next series deals with BMM. As to the kind of experiment: BMM cell viability by MTT assay. It is filed as cell-based, mouse. As to conditions: 10, 30, 100 µM, LPS, 24 h (Figure 1B). The method, then: (§1) All bone marrow-derived macrophages (BMM) were obtained by culturing bone marrow cells from the femurs of 6 to 8 week old C57BL/6 male mice in RPMI 1640 medium (Invitrogen Life Technologies, Carlsbad, CA, USA) supplemented with 10 % Fetal calf serum (Invitrogen) 20 U/ml penicillin and 20 µg/ml streptomycin (Invitrogen), 2 mM L-glutamine (Glutamax-1, Invitrogen) in the presence of 10^4 U/ml (100 ng/mL) recombinant human CSF-1 (a gift from Chiron, Emeryville, CA) on bacteriological plastic plates for 7 days. The human megakaryocytic cell line MEG-01S was obtained from the American Type Culture Collection. MEG-01S were maintained in the same media as for BMM, supplemented with 1 mM Sodium Pyruvate (Invitrogen).
Known inhibitors 1 and 2, along with compound 3, were used to treat BMM at three doses (10, 30, 100 µM) in the presence of LPS for 24 h and cell viability was measured by MTT assay. BMM were seeded at 1 x 10^5 cells/well in 96 well plates and treated for 24 h with LPS (10 ng/ml) and compounds at 10, 30 and 100 µM. MEG-01S were PMA differentiated overnight before compounds were added for a further 24 h at 10, 30 and 100 µM. Cell viability was measured by MTT (Sigma-Aldrich) assay as described previously (Irvine, FASEB J, 2006).
On the technique in general: Tetrazolium assays rely on reduction of a dye to a coloured formazan, in cell work by metabolically active cells.

For series [2], the system named is MEG-01S human megakaryocytes. Kind of series: A23187-inducible PGD2 production in PMA-differentiated MEG-01S (EIA). The format is cell-based. Conditions: at 100 µM (Figure 3A). The method, then: as §1
BMM were seeded overnight at 2 x 10^5 cells/ml in 24 well plates before treatment with compound at either 10 µM or 0.1 - 100 µM for 24 h in the presence or absence of lipopolysaccharide (LPS) from Salmonella Minnesota (Sigma-Aldrich) at a final concentration of 10 ng/ml. […] Supernatants were collected and samples were analysed for PGD2 using Prostaglandin D2 Mox Express EIA kits, PGE2 using Prostaglandin E2 Express EIA kits, the prostacyclin derivative 6-keto PGF1α using the 6-keto Prostaglandin F1α EIA Kit and the Thromboxane A2 derivative TXB2 using the Thromboxane B2 Express EIA kit (Cayman Chemical) according to the manufacturer's instructions. […]

A further series concerns MEG-01S. Kind of series: MEG-01S cell viability by MTT assay. The format is cell-based, human. As to conditions: 24 h treatment, 0-100 µM (Figure 3B). The method, then: as §1
Known inhibitors 1 and 2, along with compound 3, were used to treat BMM at three doses (10, 30, 100 µM) in the presence of LPS for 24 h and cell viability was measured by MTT assay. BMM were seeded at 1 x 10^5 cells/well in 96 well plates and treated for 24 h with LPS (10 ng/ml) and compounds at 10, 30 and 100 µM. […] Cell viability was measured by MTT (Sigma-Aldrich) assay as described previously (Irvine, FASEB J, 2006).
The effect of the compounds on MEG-01S cell viability was measured by MTT assay after 24 h treatment across the concentration range 0 - 100 µM of compounds (Figure 3B). […]

T1 sequence (O60760 whole entry): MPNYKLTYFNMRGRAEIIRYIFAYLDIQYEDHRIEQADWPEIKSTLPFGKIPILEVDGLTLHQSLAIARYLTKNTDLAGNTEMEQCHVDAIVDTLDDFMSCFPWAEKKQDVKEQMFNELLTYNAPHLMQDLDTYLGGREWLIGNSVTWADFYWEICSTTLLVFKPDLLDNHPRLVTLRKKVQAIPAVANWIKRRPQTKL

For orientation: IC50 means the concentration needed to halve the response being measured. A lower IC50 goes with higher potency. For `CC(=O)c1ccc(-c2ccc(C(=O)N[C@@H](Cc3ccccc3)C(N)=O)cn2)s1` [Compound 18], on H-PGDS, the 50% inhibitory concentration (IC50) was found to be 5.1 ± 1.1 µM and the inhibition at 50 µM was determined as 65.5 ± 7.7%.
For `Cc1cc(-c2ccc(C(=O)N[C@@H](Cc3ccccc3)C(N)=O)cn2)sc1C#N` [Compound 22], the “I[50]” value on H-PGDS came out at 34.6 ± 2.1%.
Regarding `CC(NC(=O)C(Cc1ccccc1)NC(=O)c1ccc(-c2cccs2)nc1)C(N)=O` (stereo not drawn) [Compound 24], at H-PGDS, half-maximal inhibition (IC50) was put at 0.86 ± 1.2 µM and the inhibition at 50 µM was determined as 94.6 ± 0.3%.
For `O=C(c1ccc(-c2cccs2)nc1)N1CCC2(CCc3ccccc32)CC1` [Compound 7, (2,3-dihydrospiro[indene-1,4'-piperidin]-1'-yl)(6-(thiophen-2-yl)pyridin-3-yl)methanone], at H-PGDS, the IC50 stood at 1.97 ± 1.2 µM and the inhibition at 50 µM amounted to 91 ± 0.1%.
Turning to `c1ccc(C(OC2CCN(CCCc3nn[nH]n3)CC2)c2ccccc2)cc1` [Compound 1, reference compound], in series [1], the “differential effect in inhibition of PGD2 versus PGE2, 6-keto PGF1α or TXB2 (selectivity)” value is “no differential effect”. Besides, the BMM cell viability entry in the series with BMM is “modest but significant effects”. Moreover, in series [2], the “A23187-inducible PGD2 production” value was “very modest activity”. The MEG-01S cell viability result in the series with MEG-01S is reported as “little effect”.
On to `C[C@H](NC(=O)c1ccc(-c2cccs2)nc1)c1ccc2ccccc2c1` [Compound 12, (S)-N-(1-(naphthalen-2-yl)ethyl)-6-(thiophen-2-yl)nicotinamide], for which, at H-PGDS, the half-maximal inhibitory concentration (IC50) turned out to be 0.086 µM and the inhibition at 50 µM was determined as 99.8 ± 0.3%.
For the molecule `Cc1ccsc1-c1ccc(C(=O)N[C@@H](Cc2ccccc2)C(N)=O)cn1` [Compound 23], on H-PGDS, the IC50 amounted to 1.87 ± 1.1 µM and the inhibition at 50 µM came to 91.6 ± 0.8%.
With `O=C(NCc1ccccc1)c1ccc(-c2cccs2)nc1` [Compound 5, N-benzyl-6-(thiophen-2-yl)nicotinamide], on H-PGDS, the IC50 turned out to be 0.597 ± 1.2 µM and the inhibition at 50 µM was 99.5 ± 0.8%.
In the case of `NC(=O)[C@H](Cc1ccccc1)NC(=O)c1ccc(-c2sccc2Cl)nc1` [Compound 19], at H-PGDS, inhibition was half-maximal at 3.2 ± 1.6 µM (IC50) and the inhibition at 50 µM came to 94.8 ± 2.4%.
For the molecule `CC(=O)C1(c2ccccc2)CCN(C(=O)c2ccc(-c3cccs3)nc2)CC1` [Compound 8, 1-(4-phenyl-1-(6-(thiophen-2-yl)nicotinoyl)piperidin-4-yl)ethanone], on H-PGDS, the inhibition at 50 µM amounted to 58.7 ± 0.8%.
Regarding `N#Cc1ccc(-c2ccc(C(=O)N[C@@H](Cc3ccccc3)C(N)=O)cn2)s1` [Compound 20], on H-PGDS, the “I[50]” value came to 67.9 ± 1.6%.
With `O=C(c1ccc(-c2cccs2)nc1)N1CCC(N2C(=O)OCc3ccccc32)CC1` [Compound 13, 1-(1-(6-(thiophen-2-yl)nicotinoyl)piperidin-4-yl)-1H-benzo[d][1,3]oxazin-2(4H)-one], on H-PGDS, 3.4 ± 1.4 µM corresponded to half-maximal inhibition (IC50) and the “I[50]” value stood at 87.9 ± 1.1%.
Consider `O=C(O)c1ccc(CNC(=O)c2ccc(-c3cccs3)nc2)cc1` [Compound 9, 4-((6-(thiophen-2-yl)nicotinamido)methyl)benzoic acid], for which, on H-PGDS, the IC50 stood at 0.66 ± 1.1 µM and the inhibition at 50 µM stood at 98.3 ± 1.1%.
For `NC(=O)[C@H](Cc1ccccc1)NC(=O)c1ccc(-c2ccc(C(=O)O)s2)nc1` [Compound 15], the “I[50]” value at H-PGDS is reported as 19.4 ± 1.4%.
Regarding `O=C(c1ccc(-c2cccs2)nc1)N1CCC(n2c(=O)[nH]c3ccccc32)CC1` [Compound 11, 1-(1-(6-(thiophen-2-yl)nicotinoyl)piperidin-4-yl)-1H-benzo[d]imidazol-2(3H)-one], at H-PGDS, the IC50 amounted to 1.22 ± 1.4 µM and the inhibition at 50 µM came out at 90.4 ± 0.7%.
For `NC(=O)[C@H](Cc1ccccc1)NC(=O)c1ccc(-c2ccc(Cl)s2)nc1` [Compound 16], on H-PGDS, the IC50 came out at 1.4 ± 1.3 µM and the inhibition at 50 µM is 89.4 ± 4.7%.
Turning to `O=C(NC(c1ccccc1)c1ccccc1)c1ccc(-c2cccs2)nc1` [Compound 4, N-benzhydryl-6-(thiophen-2-yl)nicotinamide], on H-PGDS, the inhibition at 50 µM was found to be 28.5%.
For `Cc1csc(-c2ccc(C(=O)N[C@@H](Cc3ccccc3)C(N)=O)cn2)c1` [Compound 21], at H-PGDS, half-maximal inhibition (IC50) required 0.38 ± 1.1 µM and the inhibition at 50 µM is 97.4 ± 0.8%.
On to `Cc1csc(-c2ccc(C(=O)N[C@@H](C)c3ccc4ccccc4c3)cn2)c1` [Compound 25], for which, on H-PGDS, the IC50 came to 0.18 µM and the inhibition at 50 µM came out at 96.9 ± 1%.
The corresponding values for `NC(=O)[C@H](Cc1ccccc1)NC(=O)c1ccc(-c2ccc(C=O)s2)nc1` [Compound 14] are 1.7 ± 1.8 µM and 83.4 ± 1.5%.
For `Cc1ccc(-c2ccc(C(=O)N[C@@H](Cc3ccccc3)C(N)=O)cn2)s1` [Compound 17], in that order: 2 ± 1.1 µM and 95 ± 1.1%.
Consider `O=C(c1ccc(-c2cccs2)nc1)N1CCc2ccccc2C1` [Compound 6, (3,4-dihydroisoquinolin-2(1H)-yl)(6-(thiophen-2-yl)pyridin-3-yl)methanone], for which the inhibition at 50 µM at H-PGDS stood at 72.3 ± 1.5%.
Take `CS(=O)(=O)N1CC2(CCN(C(=O)c3ccc(-c4cccs4)nc3)CC2)c2ccccc21` [Compound 10, (1-(methylsulfonyl)spiro[indoline-3,4'-piperidin]-1'-yl)(6-(thiophen-2-yl)pyridin-3-yl)methanone]: at H-PGDS, the IC50 worked out at 1.23 ± 1.1 µM and the inhibition at 50 µM was 90.4 ± 0.5%.
